Source: patent publication US20080318989A1, “Pyrimidine Kinase Inhibitors” (priority 2005, published 2008)

The compounds below were run against T1, Aurora A (Homo sapiens, UniProt O14965) (assay: Aurora A in vitro kinase assay (ELISA)). Conditions: 30 μM ATP, 45 minutes.
T1 sequence (O14965 1-403): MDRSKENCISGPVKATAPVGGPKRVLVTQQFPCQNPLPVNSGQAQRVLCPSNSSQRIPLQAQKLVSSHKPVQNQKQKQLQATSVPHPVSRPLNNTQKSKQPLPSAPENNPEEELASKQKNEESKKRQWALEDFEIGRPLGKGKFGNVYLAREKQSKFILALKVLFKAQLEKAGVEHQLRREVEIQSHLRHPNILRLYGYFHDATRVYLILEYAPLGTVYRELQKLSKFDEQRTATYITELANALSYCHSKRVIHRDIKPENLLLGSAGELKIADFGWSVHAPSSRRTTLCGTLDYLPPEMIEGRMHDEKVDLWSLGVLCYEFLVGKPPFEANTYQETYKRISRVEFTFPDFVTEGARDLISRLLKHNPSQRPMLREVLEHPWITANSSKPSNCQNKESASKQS
Format: biochemical
Procedure: Kinase activities were measured by Enzyme-Linked Immunosorbent Assay (ELISA): Maxisorp 384-well plates (Nunc) were coated with recombinant fusion protein comprising residues 1-15 of Histone H3 fused to the N-terminus of Glutathione-S-Transferase. Plates were then blocked with a solution of 1 mg/mL I-block (Tropix Inc) in phosphate-buffered saline. Kinase reactions were carried out in the wells of the ELISA plate by combining an appropriate amount of Aur A and B kinases and/or mutants thereof with test compound and 30 μM ATP. The reaction buffer was 1× Kinase Buffer (Cell Signaling Technologies) supplemented with 1 μg/mL I-block. Reactions were stopped after 45 minutes by addition of 25 mM EDTA. After washing, substrate phosphorylation was detected by addition of anti-phospho-Histone H3 (Ser 10) 6G3 mAb (Cell Signaling cat #9706) and sheep anti-mouse pAb-HRP (Amersham cat# NA931V), followed by calorimetric development with TMB.

SMILES	IC50
CCN1C(=O)C(C)(C)c2cc(Nc3ncc(F)c(Nc4ccc(C(=O)NC(C)(C)C)cc4)n3)ccc21 [compound 5]	0.0108 µM
CCN1C(=O)C(C)(C)c2cc(Nc3ncc(F)c(Nc4ccc(C(=O)Nc5ccccn5)cc4)n3)ccc21 [compound 26]	0.0231 µM
COCCN1C(=O)C(C)(C)c2cc(Nc3ncc(F)c(Nc4ccccc4NC(=O)C4CC4)n3)ccc21 [compound 38]	0.0072 µM
CC(=O)N1CCc2cc(Nc3ncc(Cl)c(Nc4ccccc4C(=O)NC4CC4)n3)ccc21 [compound 44]	0.0021 µM
CC(=O)N1CC(C)(C)c2cc(Nc3ncc(Cl)c(Nc4ccccc4C(=O)NC4CC4)n3)ccc21 [compound 48]	0.0248 µM
O=C(/C=C/c1ccccc1)Nc1ccccc1Nc1nc(Nc2ccc3c(c2)CC(=O)N3)ncc1Cl [compound 50]	0.006 µM
O=C(Nc1ccccc1Nc1nc(Nc2ccc3c(c2)CS(=O)(=O)C3)ncc1Cl)C1CC1 [compound 58]	0.0006 µM
CN1C(=O)C(C)(C)c2cc(Nc3ncc(F)c(Oc4ccc(C(=O)Nc5ccccn5)cc4)n3)ccc21 [compound 59]	0.0104 µM

Each compound was assayed on HT29 colon cancer cell line (assay: Cellular proliferation/viability assay (Cell-Titer-Glo), HT29). Conditions: Homo sapiens, HT-29, 120 h; HT29, 5 days incubation.
Format: cell-based
Procedure: (§1) Potency of test compounds in inhibiting cellular proliferation and/or cellular viability was estimated using a cellular ATP assay (Cell-Titer-Glo, Promega). Cells (HCT116, HT29 colon cancer cell lines, MCF-7 breast cancer cell line) were seeded in 384-well plates (Greiner μClear) at an appropriate density in 50:50 DMEM/Hams F-12 medium supplemented with 10% fetal calf serum, and allowed to attach overnight. Test compounds were sequentially diluted in DMSO and then culture medium, and added to the cells at appropriate concentrations. Cells were incubated with compound for 5 days. Cell number/viability was estimated using Cell-Titer-Glo reagent (Promega) according to manufacturers instructions.

SMILES	IC50
CCN1C(=O)C(C)(C)c2cc(Nc3ncc(Cl)c(Nc4ccccc4NC(=O)/C=C/c4ccccc4)n3)ccc21 [compound 49]	0.1 µM

What follows are compounds tested on HCT116 colon cancer cell line (assay: Cellular proliferation/viability assay (Cell-Titer-Glo), HCT116). Conditions: Homo sapiens, HCT-116, 120 h; HCT116, 5 days incubation.
Format: cell-based
Procedure: as §1

SMILES	IC50
CCN1C(=O)C(C)(C)c2cc(Nc3ncc(Cl)c(Nc4ccccc4NC(=O)/C=C/c4ccccc4)n3)ccc21 [compound 49]	0.11 µM
